Laboratory results taken from US20080261994A1, “CYCLOPROPANE COMPOUNDS AND PHARMACEUTICAL USE THEREOF” (Japan Tobacco Inc., priority 2003, published 2008).
Like-named read-outs stand apart in the source and are kept apart here.

Legend:
MMP-1 = target: T1, MMP-1 (Homo sapiens, UniProt P03956); assay: MMP-1 inhibitory action (Type I collagen Activity Measurement kit, FITC-labeled collagen type I); assay type: biochemical
T1 sequence (P03956 100-469): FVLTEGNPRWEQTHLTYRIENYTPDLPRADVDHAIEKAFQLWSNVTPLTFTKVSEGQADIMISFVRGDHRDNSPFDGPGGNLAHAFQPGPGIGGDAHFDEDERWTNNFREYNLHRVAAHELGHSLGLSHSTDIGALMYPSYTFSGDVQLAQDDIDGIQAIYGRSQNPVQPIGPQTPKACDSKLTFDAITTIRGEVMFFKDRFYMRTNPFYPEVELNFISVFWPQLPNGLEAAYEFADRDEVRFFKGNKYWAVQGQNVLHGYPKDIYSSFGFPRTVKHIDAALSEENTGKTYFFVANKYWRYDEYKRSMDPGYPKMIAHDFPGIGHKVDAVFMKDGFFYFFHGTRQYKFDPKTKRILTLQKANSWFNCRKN
Description: For MMP-1 Assay, Type I collagen Activity Measurement kit (YAGAI YU-72013) modified to a 96-well plate format was used.
The principle of the kit is based on the property of collagen that becomes soluble in ethanol after being cleaved by MMP-1.
(§1) The enzyme and substrate were diluted with Tris-HCl buffer, and test compounds were diluted with dimethyl sulfoxide (DMSO).
The enzyme and test compounds were added into 96-well plate, and fluorescein isothiocianate (FITC)-labeled collagen type I was added as a substrate and the mixture was incubated at 37° C. for 3 hr.
The reaction was terminated by addition of Tris-HCl buffer containing ethanol. After centrifugation, the supernatant containing denatured substrate was transferred to another 96-well plate. The collagenase activity of MMP-1 was determined by measuring FITC fluorescence intensity (excitation wavelength 485 nm, emission wavelength 530 nm) of each well. The inhibitory activity of the compound in each well (%) was calculated based on the values of enzyme-free well and inhibitor-free well. The inhibitory activity of the compound was represented as IC50 (μM).

aggrecanase-1 = target: T2, aggrecanase-1 (Homo sapiens, UniProt O75173); assay: Aggrecanase-1 inhibitory action (Particle Assay, GAG release from aggrecan-containing polyacrylamide particles); assay type: biochemical
T2 sequence (O75173 213-837): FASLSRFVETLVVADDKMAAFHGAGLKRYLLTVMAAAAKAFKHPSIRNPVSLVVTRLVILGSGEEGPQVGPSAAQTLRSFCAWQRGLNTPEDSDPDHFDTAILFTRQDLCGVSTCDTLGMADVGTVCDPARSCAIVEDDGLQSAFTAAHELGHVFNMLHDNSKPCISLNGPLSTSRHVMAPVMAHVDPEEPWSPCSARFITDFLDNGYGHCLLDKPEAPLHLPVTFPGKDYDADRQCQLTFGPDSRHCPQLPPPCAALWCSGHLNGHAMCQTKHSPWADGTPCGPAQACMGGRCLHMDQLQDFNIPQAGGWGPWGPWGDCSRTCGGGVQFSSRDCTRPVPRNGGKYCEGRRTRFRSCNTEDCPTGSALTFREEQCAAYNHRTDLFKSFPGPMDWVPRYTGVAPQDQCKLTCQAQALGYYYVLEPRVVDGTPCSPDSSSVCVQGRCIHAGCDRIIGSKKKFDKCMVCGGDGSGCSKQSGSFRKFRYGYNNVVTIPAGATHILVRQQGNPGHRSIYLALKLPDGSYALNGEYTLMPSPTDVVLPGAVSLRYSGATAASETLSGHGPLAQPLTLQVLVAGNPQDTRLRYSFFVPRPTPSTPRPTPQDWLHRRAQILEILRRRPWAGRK
Description: Particle Assay was used for determination of aggrecanase activity.
as §1
Test compounds and the enzyme were added into 96-well plate, and polyacrylamide particles containing aggrecan were added as a substrate and the mixture was incubated at 37° C. for 15 hr.
After incubation, the supernatant was transferred to another plate, and mixed with 1,9-dimethylmethylene blue. The absorbence at 595 nm was measured to quantify the amount of glycosaminoglycan (GAG) released in the reaction supernatant. Whale chondroitin sulfate was used as the standard of GAG. The inhibitory activity of the compound in each well (%) was calculated based on the values of enzyme-free well and inhibitor-free well. The inhibitory activity of the compound was represented as […] (μM).

[1] = MMP-1 inhibitory action, FITC-labeled collagen type I, 37° C. for 3 hr, read-out: IC50 MMP1 (Experimental Example 2)
[2] = aggrecanase-1 inhibitory action, read-out: IC50 AG1 (Experimental Example 1)
[3] = Experimental Example 2, read-out: IC50 MMP1
[4] = Experimental Example 1, read-out: IC50 AG1

Row | SMILES | IC50 (MMP-1; [1]) [µM] | IC50 (aggrecanase-1; [2]) [µM] | IC50 (MMP-1; [3]) [µM] | IC50 (aggrecanase-1; [4]) [µM]
1 | CN(C)C(=O)COc1cccc(C2CC2(NS(=O)(=O)c2ccc(-c3ccc(Cl)cc3)cc2)C(=O)O)c1 (centres unmarked) [Example 1-114] | ≥ 1 | < 1 |  | 
2 | O=C(O)C1(NS(=O)(=O)c2ccc(-c3ccc(Cl)cc3)s2)CC1c1cccnc1 (centres unmarked) [Example 2-70] | ≥ 10 | < 1 |  | 
3 | O=C(O)C1(NS(=O)(=O)c2ccc(OCc3ccc(Cl)cc3Cl)cc2)CC1c1ccccc1 (centres unmarked) [Example 1-65] | ≥ 10 |  |  | 
4 | O=C(O)[C@]1(NS(=O)(=O)c2ccc(-c3cccc(Cl)c3)s2)C[C@@H]1c1ccccc1 [Example 1-110] | ≥ 1 | < 1 |  | 
5 | NC(=O)COc1cccc(C2CC2(NS(=O)(=O)c2ccc(-c3ccc(Cl)cc3)cc2)C(=O)O)c1 (centres unmarked) [Example 1-117] | ≥ 1 | < 0.1 |  | 
6 | Cc1nc2cc(-c3ccc(S(=O)(=O)N[C@@]4(C(=O)O)C(C)[C@@H]4c4ccccc4)s3)ccc2s1 (some centres unmarked) [Example 2-469] |  |  | ≥ 10 | ≥ 1
7 | O=C(COc1ccccc1C1CC1(NS(=O)(=O)c1ccc(-c2ccc(Cl)cc2)s1)C(=O)O)NCc1ccccc1 (centres unmarked) [Example 1-145] | ≥ 10 | < 1 |  | 
8 | O=C(CO)Nc1cccc(C2CC2(NS(=O)(=O)c2ccc(-c3ccc(Cl)cc3)cc2)C(=O)O)c1 (centres unmarked) [Example 1-105] | ≥ 1 | < 1 |  | 
9 | O=C(O)C1(NS(=O)(=O)c2ccc(-c3ccc(Cl)cc3)cc2)CC1c1cccc(NCc2ccccc2)c1 (centres unmarked) [Example 1-43] | ≥ 1 | < 1 |  | 
10 | O=C1Nc2ccccc2C2CC12NS(=O)(=O)c1ccc(-c2ccc(Cl)cc2)s1 (centres unmarked) [Example 2-218] | ≥ 10 | ≥ 1 |  | 
11 | COc1ccccc1C1CC1(NS(=O)(=O)c1ccc(-c2ccc(Cl)cc2)s1)C(=O)O (centres unmarked) [Example 1-4] | ≥ 1 | < 0.1 |  | 
12 | CC1[C@](C)(c2ccccc2)[C@]1(NS(=O)(=O)c1ccc(-c2cc(C(C)(F)F)on2)s1)C(=O)O (some centres unmarked) [Example 2-625] |  |  |  | < 0.1
13 | O=C(O)[C@]1(NS(=O)(=O)c2ccc(-c3ccc(Cl)cc3Cl)s2)C[C@@H]1c1ccccc1 [Example 1-125] | ≥ 10 | < 0.1 |  | 
14 | O=C1NCc2ccccc2C2CC12NS(=O)(=O)c1ccc(-c2ccc(Cl)cc2)s1 (centres unmarked) [Example 2-415] |  |  | ≥ 10 | ≥ 1
15 | Cc1cnc(-c2ccc(S(=O)(=O)N[C@@]3(C(=O)O)C[C@@H]3c3ccccc3)s2)s1 [Example 2-26] | ≥ 10 | < 1 |  | 
16 | O=C(O)C1(NS(=O)(=O)N2CCc3nc(-c4ccccc4)ncc3C2)CC1c1ccccc1 (centres unmarked) [Example 2-127] | ≥ 10 | ≥ 10 |  | 
17 | COc1cccc([C@@]2(C)C[C@@]2(NS(=O)(=O)c2ccc(-c3cc(C(F)(F)F)on3)s2)C(=O)O)c1 [Example 2-624] |  |  |  | < 0.1
18 | O=C(O)C1(NS(=O)(=O)c2ccc(-c3ccc(Cl)cc3)s2)CC1c1cccc(O)c1 (centres unmarked) [Example 1-116] | ≥ 1 | < 1 |  | 
19 | O=C(O)C1(NS(=O)(=O)c2ccc(-c3ccc(Cl)cc3)cc2)CC1c1cccc(NCc2ncc[nH]2)c1 (centres unmarked) [Example 1-112] | ≥ 1 | < 1 |  | 
20 | O=C(O)[C@]1(NS(=O)(=O)c2ccc(-c3ccc(Cl)cc3)cc2)C[C@@H]1c1ccccc1 [Example 1, (1S,2R)-1-(4′-Chlorobiphenyl-4-sulfonylamino)-2-phenylcyclopropanecarboxylic acid] | ≥ 1 | < 1 |  | 

Row | SMILES | IC50 (MMP-1; [1]) [µM] | IC50 (aggrecanase-1; [2]) [µM] | IC50 (MMP-1; [3]) [µM] | IC50 (aggrecanase-1; [4]) [µM]
21 | O=C(O)[C@@]1(NS(=O)(=O)c2ccc(-c3ccc(Cl)cc3)cc2)C[C@H]1c1ccccc1 [Example 1-7] | ≥ 10 | < 1 |  | 
22 | C[C@]1(c2ccccc2)C[C@@]1(NS(=O)(=O)c1ccc(-c2cccc(OCCCO)c2)s1)C(=O)O [Example 2-576] |  |  |  | ≥ 1
23 | O=C(O)C1(NS(=O)(=O)c2ccc3c(c2)Cc2cc(F)ccc2-3)CC1c1ccccc1 (centres unmarked) [Example 1-80] | ≥ 10 | < 0.1 |  | 
24 | NC(=O)Nc1cccc(C2CC2(NS(=O)(=O)c2ccc(-c3ccc(Cl)cc3)s2)C(=O)O)c1 (centres unmarked) [Example 1-135] | ≥ 1 | < 1 |  | 
25 | CC(=O)Nc1ccc(-c2ccc(S(=O)(=O)N[C@@]3(C(=O)O)C[C@]3(C)c3ccccc3)s2)cc1 [Example 2-402] |  |  | ≥ 10 | ≥ 1
26 | O=C(O)[C@]1(NS(=O)(=O)c2ccc(-c3csc4ccccc34)s2)C[C@@H]1c1ccccc1 [Example 2-118] | ≥ 1 | ≥ 1 |  | 
27 | NC(=O)c1cccc(C2CC2(NS(=O)(=O)c2ccc(-c3ccc(Cl)cc3)s2)C(=O)O)c1 (centres unmarked) [Example 1-137] | ≥ 1 | < 1 |  | 
28 | CN(C)c1cccc(C2CC2(NS(=O)(=O)c2ccc(-c3ccc(Cl)cc3)cc2)C(=O)O)c1 (centres unmarked) [Example 1-21] | ≥ 1 | < 1 |  | 
29 | COc1ccc(-c2ccc(S(=O)(=O)N[C@@]3(C(=O)O)C[C@]3(C)c3ccccc3)s2)cc1CO [Example 2-592] |  |  |  | ≥ 1
30 | CC(C)NC(=O)COc1ccccc1C1CC1(NS(=O)(=O)c1ccc(-c2ccc(Cl)cc2)s1)C(=O)O (centres unmarked) [Example 1-147] | ≥ 10 | < 1 |  | 
31 | O=C(O)[C@]1(NS(=O)(=O)c2cnc(-c3ccc(Cl)cc3)s2)C[C@@H]1c1ccccc1 [Example 1-100] | ≥ 1 | < 1 |  | 
32 | Cn1ccnc1CNc1cccc(C2CC2(NS(=O)(=O)c2ccc(-c3ccc(Cl)cc3)cc2)C(=O)O)c1 (centres unmarked) [Example 1-101] | ≥ 10 | < 1 |  | 
33 | O=C(O)C1(NS(=O)(=O)c2ccc(-c3ccc(Br)cc3)cc2)CC1c1ccccc1 (centres unmarked) [Example 1-31] | ≥ 10 | < 1 |  | 
34 | CN(C)Cc1cccc(C2CC2(NS(=O)(=O)c2ccc(-c3ccc(Cl)cc3)s2)C(=O)O)c1 (centres unmarked) [Example 1-98] | ≥ 10 | < 1 |  | 
35 | O=C(O)[C@]1(NS(=O)(=O)c2ccc(-c3cc4ccccc4o3)s2)C[C@@H]1c1ccccc1 [Example 2-122] | < 1 | ≥ 1 |  | 
36 | O=C(O)C1(NS(=O)(=O)c2ccc(-c3ccc(Cl)cc3)s2)CC1c1ccccc1Br (centres unmarked) [Example 2-167] | ≥ 10 | < 1 |  | 
37 | CN1CCC(N(C)Cc2cccc(C3CC3(NS(=O)(=O)c3ccc(-c4ccc(Cl)cc4)s3)C(=O)O)c2)CC1 (centres unmarked) [Example 1-104] | ≥ 10 | < 1 |  | 
38 | C[C@]1(c2ccccc2)C[C@@]1(NS(=O)(=O)c1ccc(-c2cccc(OCCO)c2)s1)C(=O)O [Example 2-575] |  |  |  | ≥ 1
39 | O=C1O[C@H]([C@H]2C[C@@]2(NS(=O)(=O)c2ccc(-c3ccc(Cl)cc3)s2)C(=O)O)CN1Cc1ccccc1 [Example 2-138] |  | ≥ 10 |  | 
